For 18 compounds, IC50 results are on record in patent US8785457B2 (Cellzome Limited, priority 2009, dated 2014).

Experiment [1] relates to S6RP serine-240/244 phosphorylation. The experiment is described as follows: In vitro Phospho-S6 cellular assay (pS6RP S240/244) in HEK293T/17 cells. Format: cell-based. Conditions: Homo sapiens, 2 hours, read-out: pS6 IC50. A digest of the protocol: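 HEK293T/17 cells were seeded at 40,000 (pS6RP) or 80,000 (pAkt) cells/well in DMEM with 2% FCS. They were exposed to 8 compound concentrations (0.1% DMSO) for 2 h at 37 °C and then lysed. Phosphoprotein was quantified by MesoScale electrochemiluminescence sandwich immunoassay, and the sigmoidal variable-slope dose-response was fitted.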

The target of the next experiment is T1, PI3 Kgamma (PI3 Kg) (Homo sapiens, UniProt P48736).
T1 construct: endogenous in cells; host or cells: cell lysate
Briefly: kinobeads assay, PI3Kgamma. Format: binding. The conditions noted are these: kinobeads assay, Table 6; read-out: Inhibition values (IC50) PI3Kg. The gist of the method: (§1)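 Test compounds at various concentrations were added to cell lysate together with beads carrying an immobilized phenylmorpholin-chromen ligand, competing for kinase binding. Captured proteins were separated, eluted and quantified by multiplexed immunodetection; IC50 values came from dose-response curves for each kinase.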

The target in the next experiment is T2, PI3 Kbeta (PI3 Kb) (Homo sapiens, UniProt P42338).
T2 construct: endogenous in cells; host or cells: cell lysate
Briefly: kinobeads assay, PI3Kbeta. Format: binding. Conditions: kinobeads assay, Table 6; read-out: Inhibition values (IC50) PI3Kb. The gist of the method:
as §1

Broadly, the IC50 is the midpoint of a concentration-inhibition curve.

T1 sequence (P48736 whole entry): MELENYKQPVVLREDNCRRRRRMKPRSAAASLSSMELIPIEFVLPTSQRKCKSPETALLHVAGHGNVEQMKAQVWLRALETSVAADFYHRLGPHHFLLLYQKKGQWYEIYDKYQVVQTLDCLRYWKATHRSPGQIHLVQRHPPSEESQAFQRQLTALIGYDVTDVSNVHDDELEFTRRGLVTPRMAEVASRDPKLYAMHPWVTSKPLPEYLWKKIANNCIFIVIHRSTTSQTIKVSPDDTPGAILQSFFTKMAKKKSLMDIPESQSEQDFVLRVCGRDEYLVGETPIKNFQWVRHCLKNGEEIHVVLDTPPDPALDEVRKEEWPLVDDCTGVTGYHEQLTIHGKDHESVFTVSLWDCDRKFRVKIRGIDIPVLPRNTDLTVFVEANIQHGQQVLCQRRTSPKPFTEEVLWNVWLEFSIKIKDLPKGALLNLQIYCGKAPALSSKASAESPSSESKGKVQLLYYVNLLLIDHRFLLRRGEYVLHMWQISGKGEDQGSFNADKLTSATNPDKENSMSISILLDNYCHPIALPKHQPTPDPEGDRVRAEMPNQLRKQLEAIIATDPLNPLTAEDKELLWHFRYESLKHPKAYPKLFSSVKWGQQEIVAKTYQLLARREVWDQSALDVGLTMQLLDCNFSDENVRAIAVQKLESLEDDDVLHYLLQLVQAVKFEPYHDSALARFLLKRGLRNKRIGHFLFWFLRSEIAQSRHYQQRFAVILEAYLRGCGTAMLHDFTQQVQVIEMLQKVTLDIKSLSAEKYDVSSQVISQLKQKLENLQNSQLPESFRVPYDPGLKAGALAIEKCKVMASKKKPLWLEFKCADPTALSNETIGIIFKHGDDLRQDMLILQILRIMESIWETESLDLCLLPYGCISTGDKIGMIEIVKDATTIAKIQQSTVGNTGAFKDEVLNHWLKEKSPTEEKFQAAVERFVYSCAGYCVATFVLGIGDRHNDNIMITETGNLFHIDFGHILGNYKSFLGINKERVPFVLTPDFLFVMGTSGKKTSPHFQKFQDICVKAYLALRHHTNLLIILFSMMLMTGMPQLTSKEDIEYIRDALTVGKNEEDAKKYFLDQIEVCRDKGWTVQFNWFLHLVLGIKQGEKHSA
T2 sequence (P42338 whole entry): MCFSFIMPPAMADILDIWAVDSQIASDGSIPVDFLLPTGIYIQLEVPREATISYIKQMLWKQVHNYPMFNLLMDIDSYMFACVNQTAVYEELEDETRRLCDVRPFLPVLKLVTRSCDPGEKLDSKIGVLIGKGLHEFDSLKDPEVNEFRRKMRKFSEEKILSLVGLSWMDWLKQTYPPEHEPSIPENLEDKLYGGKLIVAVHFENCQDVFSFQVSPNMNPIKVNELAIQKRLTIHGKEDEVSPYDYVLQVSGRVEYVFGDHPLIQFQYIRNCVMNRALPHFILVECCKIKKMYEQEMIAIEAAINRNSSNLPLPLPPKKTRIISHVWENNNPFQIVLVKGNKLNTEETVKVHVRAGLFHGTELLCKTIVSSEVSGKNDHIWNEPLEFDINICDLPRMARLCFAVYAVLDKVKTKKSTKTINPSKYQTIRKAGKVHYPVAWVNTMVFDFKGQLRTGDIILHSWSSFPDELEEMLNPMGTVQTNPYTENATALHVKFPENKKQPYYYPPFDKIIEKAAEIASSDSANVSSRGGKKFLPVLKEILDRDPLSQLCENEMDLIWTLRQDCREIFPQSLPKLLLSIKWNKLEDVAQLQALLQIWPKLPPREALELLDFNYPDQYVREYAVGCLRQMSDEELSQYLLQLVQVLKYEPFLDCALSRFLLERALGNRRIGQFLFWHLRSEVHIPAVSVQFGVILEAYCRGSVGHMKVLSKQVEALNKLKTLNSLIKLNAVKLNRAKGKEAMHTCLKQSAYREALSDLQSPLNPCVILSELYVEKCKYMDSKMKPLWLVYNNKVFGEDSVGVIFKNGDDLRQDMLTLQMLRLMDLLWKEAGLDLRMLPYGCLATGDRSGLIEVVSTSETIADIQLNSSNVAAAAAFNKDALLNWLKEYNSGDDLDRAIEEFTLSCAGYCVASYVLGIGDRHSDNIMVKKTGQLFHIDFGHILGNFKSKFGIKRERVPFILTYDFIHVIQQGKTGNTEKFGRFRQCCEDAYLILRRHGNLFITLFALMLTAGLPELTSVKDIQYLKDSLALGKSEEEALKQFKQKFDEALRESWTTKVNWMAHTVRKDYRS
T2 sequence (P27986 whole entry partner): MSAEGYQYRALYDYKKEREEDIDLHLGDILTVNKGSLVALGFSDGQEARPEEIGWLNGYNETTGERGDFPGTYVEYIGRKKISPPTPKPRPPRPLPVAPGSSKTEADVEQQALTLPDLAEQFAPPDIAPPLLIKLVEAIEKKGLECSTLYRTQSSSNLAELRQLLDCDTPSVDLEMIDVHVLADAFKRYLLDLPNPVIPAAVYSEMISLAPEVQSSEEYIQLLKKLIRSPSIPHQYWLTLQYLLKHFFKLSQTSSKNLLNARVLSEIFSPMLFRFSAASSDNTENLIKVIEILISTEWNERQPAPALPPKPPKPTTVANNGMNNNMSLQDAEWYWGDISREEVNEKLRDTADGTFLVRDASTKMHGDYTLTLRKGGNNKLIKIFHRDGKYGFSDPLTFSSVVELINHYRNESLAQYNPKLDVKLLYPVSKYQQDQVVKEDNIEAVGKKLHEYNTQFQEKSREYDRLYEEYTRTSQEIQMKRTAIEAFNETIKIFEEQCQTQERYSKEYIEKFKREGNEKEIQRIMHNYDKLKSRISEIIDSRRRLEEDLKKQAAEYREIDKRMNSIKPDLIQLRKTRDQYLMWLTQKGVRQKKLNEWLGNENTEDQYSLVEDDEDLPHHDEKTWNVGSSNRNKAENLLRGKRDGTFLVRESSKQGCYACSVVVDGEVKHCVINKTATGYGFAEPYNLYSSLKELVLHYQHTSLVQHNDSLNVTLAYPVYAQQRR

With `CCNC(=O)Nc1ccc(-c2nc3c(c(N4CCOC[C@@H]4C)n2)CCN(C(=O)OCC)C3)cc1` [Example 77, (S)-ethyl 2-(4-(3-ethylureido)phenyl)-4-(3-methylmorpholino)-5,6-dihydropyrido[3,4-d]pyrimidine-7(8H)-carboxylate], the half-maximal inhibitory concentration (IC50) is 0.038 µM in experiment [1], > 10 µM at PI3 Kgamma (PI3 Kg) and > 10 µM at PI3 Kbeta (PI3 Kb).
Take `CCOC(=O)N1CCc2c(nc(-c3ccc(NC(=O)NC4CC4)cc3)nc2N2CCOC[C@@H]2C)C1` [Example 78, (S)-ethyl 2-(4-(3-cyclopropylureido)phenyl)-4-(3-methylmorpholino)-5,6-dihydropyrido[3,4-d]pyrimidine-7(8H)-carboxylate]: the results for the IC50 (in experiment [1]; on PI3 Kgamma (PI3 Kg); at PI3 Kbeta (PI3 Kb)) were 0.035 µM, > 10 µM and > 10 µM, respectively.
On to `C[C@H]1COCCN1c1nc(-c2ccc(NC(=O)Nc3cccc(O)n3)cc2)nc2c1CN(C)C2` [Example 80, (S)-1-(6-hydroxypyridin-2-yl)-3-(4-(6-methyl-4-(3-methylmorpholino)-6,7-dihydro-5H-pyrrolo[3,4-d]pyrimidin-2-yl)phenyl)urea], for which the IC50 in experiment [1] is 0.089 µM; on PI3 Kgamma (PI3 Kg) it was 1 to 10 µM; at PI3 Kbeta (PI3 Kb), 1 to 10 µM.
For `CCNC(=O)Nc1ccc(-c2nc3c(c(N4CCOC[C@@H]4C)n2)CCN(C(=O)OC)C3)cc1` [Example 81, (S)-methyl 2-(4-(3-ethylureido)phenyl)-4-(3-methylmorpholino)-5,6-dihydropyrido[3,4-d]pyrimidine-7(8H)-carboxylate], the IC50 was 0.047 µM in experiment [1], > 10 µM on PI3 Kgamma (PI3 Kg) and > 10 µM at PI3 Kbeta (PI3 Kb).
Turning to `COC(=O)N1CCc2c(nc(-c3ccc(NC(=O)NC4CC4)cc3)nc2N2CCOC[C@@H]2C)C1` [Example 83, (S)-methyl 2-(4-(3-cyclopropylureido)phenyl)-4-(3-methylmorpholino)-5,6-dihydropyrido[3,4-d]pyrimidine-7(8H)-carboxylate], the figures for the concentration for half-maximal inhibition (IC50) (in experiment [1]; at PI3 Kgamma (PI3 Kg); on PI3 Kbeta (PI3 Kb)) were 0.14 µM, > 10 µM and > 10 µM, respectively.
With `C[C@H]1COCCN1c1nc(-c2ccc(NC(=O)Nc3ccn(C)n3)cc2)nc2c1CN(C)C2` [Example 84, (S)-1-(1-methyl-1H-pyrazol-3-yl)-3-(4-(6-methyl-4-(3-methylmorpholino)-6,7-dihydro-5H-pyrrolo[3,4-d]pyrimidin-2-yl)phenyl)urea], the IC50 is 0.165 µM in experiment [1], > 10 µM on PI3 Kgamma (PI3 Kg) and > 10 µM on PI3 Kbeta (PI3 Kb).
As to `CCNC(=O)Nc1ccc(-c2nc3c(c(N4CCOC[C@@H]4C)n2)CN(C)C3)cc1F` [Example 85, (S)-1-ethyl-3-(2-fluoro-4-(6-methyl-4-(3-methylmorpholino)-6,7-dihydro-5H-pyrrolo[3,4-d]pyrimidin-2-yl)phenyl)urea], the IC50 in experiment [1] was 0.873 µM; at PI3 Kgamma (PI3 Kg), > 10 µM; at PI3 Kbeta (PI3 Kb) it was > 10 µM.
Turning to `COC(=O)N1Cc2nc(-c3ccc(NC(=O)NC4CC4)cc3)nc(N3CCOC[C@@H]3C)c2C1` [Example 86, (S)-methyl 2-(4-(3-cyclopropylureido)phenyl)-4-(3-methylmorpholino)-5H-pyrrolo[3,4-d]pyrimidine-6(7H)-carboxylate], the 50% inhibitory concentration (IC50) was 0.099 µM in experiment [1], > 10 µM on PI3 Kgamma (PI3 Kg) and > 10 µM on PI3 Kbeta (PI3 Kb).
As to `CCNC(=O)Nc1ccc(-c2nc3c(c(N4CCOC[C@@H]4C)n2)CCN(C(=O)NCC)C3)cc1` [Example 87, (S)—N-ethyl-2-(4-(3-ethylureido)phenyl)-4-(3-methylmorpholino)-5,6-dihydropyrido[3,4-d]pyrimidine-7(8H)-carboxamide], the IC50 is 0.108 µM in experiment [1], > 10 µM at PI3 Kgamma (PI3 Kg) and > 10 µM on PI3 Kbeta (PI3 Kb).
With `CCNC(=O)N1CCc2c(nc(-c3ccc(NC(=O)NC4CC4)cc3)nc2N2CCOC[C@@H]2C)C1` [Example 88, (S)-2-(4-(3-cyclopropylureido)phenyl)-N-ethyl-4-(3-methylmorpholino)-5,6-dihydropyrido[3,4-d]pyrimidine-7(8H)-carboxamide], the half-inhibitory concentration (IC50) in experiment [1] is 0.083 µM; on PI3 Kgamma (PI3 Kg), > 10 µM; on PI3 Kbeta (PI3 Kb) it was > 10 µM.
In the case of `CCNC(=O)Nc1ccc(-c2nc3c(c(N4CCOC[C@@H]4C)n2)CN(C(=O)OC)C3)cc1` [Example 89, (S)-methyl 2-(4-(3-ethylureido)phenyl)-4-(3-methylmorpholino)-5H-pyrrolo[3,4-d]pyrimidine-6(7H)-carboxylate], the IC50 in experiment [1] was 0.082 µM; at PI3 Kgamma (PI3 Kg), > 10 µM; on PI3 Kbeta (PI3 Kb), > 10 µM.
In the case of `CCNC(=O)Nc1ccc(-c2nc3c(c(N4CCOC[C@@H]4C)n2)CN(C(=O)OCC)C3)cc1` [Example 90, (S)-ethyl 2-(4-(3-ethylureido)phenyl)-4-(3-methylmorpholino)-5H-pyrrolo[3,4-d]pyrimidine-6(7H)-carboxylate], the 50% inhibitory concentration (IC50) in experiment [1] is 0.083 µM; on PI3 Kgamma (PI3 Kg) it was > 10 µM; at PI3 Kbeta (PI3 Kb), > 10 µM.
Turning to `CCNC(=O)Nc1ccc(-c2nc3c(c(N4CCOC[C@@H]4C)n2)CCN(C(=O)Cc2cccnc2)C3)cc1` [Example 91, (S)-1-ethyl-3-(4-(4-(3-methylmorpholino)-7-(2-(pyridin-3-yl)acetyl)-5,6,7,8-tetrahydropyrido[3,4-d]pyrimidin-2-yl)phenyl)urea], the half-maximal inhibitory concentration (IC50) in experiment [1] was 0.105 µM; at PI3 Kgamma (PI3 Kg), > 10 µM; at PI3 Kbeta (PI3 Kb) it was > 10 µM.
For `CCNC(=O)Nc1ccc(-c2nc3c(c(N4CCOCC4)n2)CCN(C)C3)cc1` [Example 93, 1-ethyl-3-(4-(7-methyl-4-morpholino-5,6,7,8-tetrahydropyrido[3,4-d]pyrimidin-2-yl)phenyl)urea], the results for the 50% inhibitory concentration (IC50) (in experiment [1]; at PI3 Kgamma (PI3 Kg); on PI3 Kbeta (PI3 Kb)) were 0.196 µM, > 10 µM and > 10 µM, respectively.
With `CCNC(=O)Nc1ccc(-c2nc3c(c(N4CCOCC4)n2)CCN(C(=O)NCC)C3)cc1` [Example 94, N-ethyl-2-(4-(3-ethylureido)phenyl)-4-morpholino-5,6-dihydropyrido[3,4-d]pyrimidine-7(8H)-carboxamide], the IC50 was 0.565 µM in experiment [1], > 10 µM at PI3 Kgamma (PI3 Kg) and > 10 µM at PI3 Kbeta (PI3 Kb).
`CCNC(=O)Nc1ccc(-c2nc3c(c(N4CCOCC4)n2)CCN(C(=O)OCC)C3)cc1` [Example 96, ethyl 2-(4-(3-ethylureido)phenyl)-4-morpholino-5,6-dihydropyrido[3,4-d]pyrimidine-7(8H)-carboxylate]: the 50% inhibitory concentration (IC50) is 0.05 µM in experiment [1], > 10 µM on PI3 Kgamma (PI3 Kg) and > 10 µM at PI3 Kbeta (PI3 Kb).
On to `CCNC(=O)Nc1ccc(-c2nc3c(c(N4CCOCC4)n2)CCN(C(C)=O)C3)cc1` [Example 97, 1-(4-(7-acetyl-4-morpholino-5,6,7,8-tetrahydropyrido[3,4-d]pyrimidin-2-yl)phenyl)-3-ethylurea], for which the values for the IC50 (in experiment [1]; on PI3 Kgamma (PI3 Kg); at PI3 Kbeta (PI3 Kb)) were 0.338 µM, > 10 µM and 1 to 10 µM, respectively.
`CCNC(=O)Nc1ccc(-c2nc3c(c(N4CCOCC4)n2)CCN(C(=O)C(C)(C)C)C3)cc1` [Example 98, 1-ethyl-3-(4-(4-morpholino-7-pivaloyl-5,6,7,8-tetrahydropyrido[3,4-d]pyrimidin-2-yl)phenyl)urea]: the IC50 in experiment [1] was 0.045 µM; on PI3 Kgamma (PI3 Kg) it was > 10 µM; at PI3 Kbeta (PI3 Kb), > 10 µM.
